# Activity calls are given as the source filed them. The calls are words filed in the database; no cut-off is given here.
# Columns and labels:
# [1] = test system: Meloidogyne javanica; test: Nematicidal activity against Meloidogyne javanica J2 (root-knot nematode) assessed as mortality rate at 5 ug/mL (vapor concentration in the air, weight/volume) at 25 +/- 2 degC measured after 48 hr; type: functional
# [2] = test system: Meloidogyne javanica; test: Nematicidal activity against Meloidogyne javanica J2 (root-knot nematode) assessed as mortality rate at 5 ug/mL (vapor concentration in the air, weight/volume) at 25 +/- 2 degC measured after 72 hr; type: functional
# [3] = test system: Meloidogyne javanica; test: Nematicidal activity against Meloidogyne javanica J2 (root-knot nematode) assessed as mortality rate compound treated as vapor at 25 +/- 2 degC; type: functional; conditions: for LC50: Meloidogyne javanica
# [4] = test system: Meloidogyne javanica; test: Nematicidal activity against Meloidogyne javanica (root-knot nematode) inoculated in cucumber plant assessed as reduction in galls at 2 ml/kg of soil dosed 7 days before planting by pot experiment; type: functional, organism-based
# [5] = test system: Meloidogyne javanica; test: Nematicidal activity against Meloidogyne javanica (root-knot nematode) inoculated in cucumber plant assessed as reduction in galls at 0.5 ml/kg of soil dosed 7 days before planting by pot experiment; type: functional, organism-based
# [6] = test system: Meloidogyne javanica; test: Nematicidal activity against Meloidogyne javanica (root-knot nematode) inoculated in cucumber plant assessed as reduction in galls at 1 ml/kg of soil dosed 7 days before planting by pot experiment; type: functional, organism-based
# [7] = test system: Meloidogyne javanica; test: Nematicidal activity against Meloidogyne javanica (root-knot nematode) infected in cucumber field assessed as reduction in root gallling at 2 kg/ha by field plot experiment; type: functional, organism-based
# [8] = test system: Meloidogyne javanica; test: Nematicidal activity against Meloidogyne javanica (root-knot nematode) inoculated in cucumber plant assessed as reduction in Meloidogyne javanica (root-knot nematode)numbers at 0.5 to 2 ml/kg of soil dosed 7 days before planting by pot experiment; type: functional, organism-based
# [9] = test system: Meloidogyne javanica; test: Nematicidal activity against Meloidogyne javanica (root-knot nematode) inoculated in cucumber plant assessed as reduction in galls compound treated in soil 7 days before planting by pot experiment; type: functional
# [10] = test system: Meloidogyne javanica; test: Nematicidal activity against Meloidogyne javanica (root-knot nematode) infected in cucumber field assessed as reduction in root gallling at 5 kg/ha by field plot experiment; type: functional, organism-based
Structure (SMILES),mortality at 5 µg/mL [1],mortality at 5 µg/mL [2],LC90 [3],LC50 [3],Activity [4],Activity [5],Activity [6],inhibition [7],inhibition [8],LD50 [9],inhibition [10]
CC(N=C=S)c1ccccc1 (centres undefined) [1-PHENYLETHYL ISOTHIOCYANATE],58.6%,76.6%,8.14 mg/L,4.24 mg/L,–,–,–,–,–,–,–
C=CC(=O)N=C=S [ACRYLOYL ISOTHIOCYANATE],71%,92.1%,4.63 mg/L,2.53 mg/L,Active,Active,Active,Active,Active,0.48 mL,–
C=CCN=C=S [ALLYL ISOTHIOCYANATE],70.1%,90.5%,4.94 mg/L,2.76 mg/L,Active,Active,Active,Active,Active,0.49 mL,–
S=C=NCc1ccccc1 [BENZYL ISOTHIOCYANATE],32.2%,70.2%,8.55 mg/L,4.48 mg/L,–,–,–,–,–,–,–
N#CSCc1ccccc1 [BENZYL THIOCYANATE],30.1%,66.4%,8.71 mg/L,4.64 mg/L,–,–,–,–,–,–,–
CC/C=C/N=C=S [BUTENYL ISOTHIOCYANATE],20.6%,49.9%,–,–,–,–,–,–,–,–,–
CCCCN=C=S [BUTYL ISOTHIOCYANATE],28.1%,58.6%,–,–,–,–,–,–,–,–,–
CCN=C=S [ETHYL ISOTHIOCYANATE],66.9%,88.2%,5.72 mg/L,3.05 mg/L,–,–,–,–,–,–,–
CC(C)/C=C/N=C=S [ISOAMYLENE ISOTHIOCYANATE],27.4%,56.9%,–,–,–,–,–,–,–,–,–
CC(C)N=C=S [ISOPROPYL ISOTHIOCYANATE],22.6%,42.9%,–,–,–,–,–,–,–,–,–
CC(C)CC(=O)N=C=S [ISOVALERYL ISOTHIOCYANATE],26.4%,58.5%,–,–,–,–,–,–,–,–,–
CNC(=S)[S-].[Na+] [METAM SODIUM],72.2%,93.4%,3.65 mg/L,2.12 mg/L,–,–,–,–,–,–,Active
S=C=NCCc1ccccc1 [PHENETHYLISOTHIOCYANATE],60.8%,79.6%,6.96 mg/L,4.15 mg/L,–,–,–,–,–,–,–
S=C=Nc1ccccc1 [PHENYLISOTHIOCYANATE],25.6%,58.2%,–,–,–,–,–,–,–,–,–
CCCN=C=S [PROPYL ISOTHIOCYANATE],21.5%,40.2%,–,–,–,–,–,–,–,–,–
